{"source": "paper PMC9127750", "about": "“Structure-based design of CDC42 effector interaction inhibitors for the treatment of cancer” (Cell reports, 2022)", "test_system": "WM3248 melanoma cells, 486 antibodies", "experiment": "Reverse phase protein arrays (RPPA)", "type": "cell-based, Human", "from_the_text": "Pellets were snap frozen in liquid nitrogen and shipped to MD Anderson Cancer Center core RPPA facility for RPPA analysis (Table S5). Three biological replicates for each sample were generated.\nNomenclatures on the RPPA heatmaps: name_of_antibody.species_of_antibody.status_of_antibody. V - antibody validated; C - validation of antibody in progress; Q - antibody nonspecific; E – under evaluation; antibodies raised in M - mouse, G - goat, R - rabbit, or T - rat.", "key": {"[1]": {"conditions": "Norm_20: replicates 1-3 and Average, relative to 0"}}, "note": "Values joined by “and” are separate entries in the source; they are usually repeats but may differ in a detail not shown here. Equal values may be shown once."}
{"smiles": "CN(C)c1cccc(Nc2cc(-c3ccccc3)nc(C3CCNCC3)n2)c1", "note": "[ARN22089, N1,N1-dimethyl-N3-(6-phenyl-2-(piperidin-4-yl)pyrimidin-4-yl)benzene-1,3-diamine]", "values": [{"measurement": "PEA.15.R.V Average", "setting": "Norm_20, normalized to Norm_0", "value": 1.052}, {"measurement": "PEA.15_pS116.R.V Average", "setting": "Norm_20, normalized to Norm_0", "value": 0.946}, {"measurement": "PERK.R.V Average", "setting": "Norm_20, normalized to Norm_0", "value": 1.025}, {"measurement": "PGM1.R.V Average", "setting": "Norm_20, normalized to Norm_0", "value": 0.977}, {"measurement": "PHGDH.R.C Average", "setting": "Norm_20, normalized to Norm_0", "value": 1.014}, {"measurement": "PHLPP.R.V Average", "setting": "Norm_20, normalized to Norm_0", "value": 1.227}, {"measurement": "PI3K.p85.R.C Average", "setting": "Norm_20, normalized to Norm_0", "value": 0.845}, {"measurement": "PI3K.p110.a.R.C Average", "setting": "Norm_20, normalized to Norm_0", "value": 0.888}, {"measurement": "PI3K.p110.b.M.C Average", "setting": "Norm_20, normalized to Norm_0", "value": 0.953}, {"measurement": "PKA.a.R.V Average", "setting": "Norm_20, normalized to Norm_0", "value": 0.999}, {"measurement": "PKC.a.b.II_pT638_T641.R.V Average", "setting": "Norm_20, normalized to Norm_0", "value": 0.901}, {"measurement": "PKC.b.II_pS660.R.V Average", "setting": "Norm_20, normalized to Norm_0", "value": 1.030}, {"measurement": "PKCa.R.V Average", "setting": "Norm_20, normalized to Norm_0", "value": 1.322}, {"measurement": "PKM2.R.C Average", "setting": "Norm_20, normalized to Norm_0", "value": 1.001}, {"measurement": "PLK1.R.C Average", "setting": "Norm_20, normalized to Norm_0", "value": 0.902}, {"measurement": "PMS2.R.V Average", "setting": "Norm_20, normalized to Norm_0", "value": 0.963}, {"measurement": "PR.R.V Average", "setting": "Norm_20, normalized to Norm_0", "value": 0.888}, {"measurement": "PRAS40.M.C Average", "setting": "Norm_20, normalized to Norm_0", "value": 1.217}, {"measurement": "PRAS40_pT246.R.V Average", "setting": "Norm_20, normalized to Norm_0", "value": 1.170}, {"measurement": "PRC1_pT481.R.C Average", "setting": "Norm_20, normalized to Norm_0", "value": 1.054}, {"measurement": "Patched.R.C Average", "setting": "Norm_20, normalized to Norm_0", "value": 1.056}, {"measurement": "Paxillin.R.C Average", "setting": "Norm_20, normalized to Norm_0", "value": 0.857}, {"measurement": "Pdcd4.R.C Average", "setting": "Norm_20, normalized to Norm_0", "value": 0.984}, {"measurement": "Porin.M.V Average", "setting": "Norm_20, normalized to Norm_0", "value": 1.080}, {"measurement": "p21.R.C Average", "setting": "Norm_20, normalized to Norm_0", "value": 0.757}, {"measurement": "p27.Kip1.R.C Average", "setting": "Norm_20, normalized to Norm_0", "value": 1.199}, {"measurement": "p27_pT157.R.C Average", "setting": "Norm_20, normalized to Norm_0", "value": 1.392}, {"measurement": "p27_pT198.R.V Average", "setting": "Norm_20, normalized to Norm_0", "value": 1.105}, {"measurement": "p38.MAPK.R.V Average", "setting": "Norm_20, normalized to Norm_0", "value": 0.992}, {"measurement": "p38.MAPK._pT180_Y182.R.V Average", "setting": "Norm_20, normalized to Norm_0", "value": 0.965}, {"measurement": "p38.a.M.V Average", "setting": "Norm_20, normalized to Norm_0", "value": 0.909}, {"measurement": "p44.42.MAPK.R.V Average", "setting": "Norm_20, normalized to Norm_0", "value": 1.224}, {"measurement": "p53.R.C Average", "setting": "Norm_20, normalized to Norm_0", "value": 1.197}, {"measurement": "p70.S6K1.R.V Average", "setting": "Norm_20, normalized to Norm_0", "value": 1.144}, {"measurement": "p70.S6K_pT389.R.V Average", "setting": "Norm_20, normalized to Norm_0", "value": 0.981}, {"measurement": "p90RSK_pT573.R.C Average", "setting": "Norm_20, normalized to Norm_0", "value": 0.937}, {"measurement": "PREX1.R.V normalized RPPA signal", "setting": "[1]", "value": "1.049 and 0.907 and 1.063 and 1.006"}, {"measurement": "PTEN.R.V normalized RPPA signal", "setting": "[1]", "value": "1.227 and 1.032 and 1.101"}, {"measurement": "PTPN12.R.V normalized RPPA signal", "setting": "[1]", "value": "0.953 and 1.002 and 1.471 and 1.142"}, {"measurement": "PYGB.R.V normalized RPPA signal", "setting": "[1]", "value": "1.322 and 1.252 and 1.214"}, {"measurement": "PYGM.M.C normalized RPPA signal", "setting": "[1]", "value": "0.919 and 1.127 and 1.743 and 1.263"}, {"measurement": "Puma.R.C normalized RPPA signal", "setting": "[1]", "value": "1.011 and 1.199"}, {"measurement": "Pyk2_pY402.R.C normalized RPPA signal", "setting": "[1]", "value": "1.106 and 1.030 and 0.994"}, {"measurement": "RBM15.R.V normalized RPPA signal", "setting": "[1]", "value": "1.053 (2×) and 1.142 and 1.083"}, {"measurement": "RIP3.R.C normalized RPPA signal", "setting": "[1]", "value": "1.022 and 0.957 and 0.979 and 0.986"}, {"measurement": "RIP.R.C normalized RPPA signal", "setting": "[1]", "value": "0.835 and 1.185 and 1.165 and 1.062"}, {"measurement": "RPA32.R.V normalized RPPA signal", "setting": "[1]", "value": "1.395 and 1.278 and 1.255"}, {"measurement": "RPA32_pS4_S8.R.C normalized RPPA signal", "setting": "[1]", "value": "2.064 and 2.369 and 1.687 and 2.040"}, {"measurement": "RRM1.R.C normalized RPPA signal", "setting": "[1]", "value": "0.973 and 0.832 and 0.977 and 0.927"}, {"measurement": "RRM2.R.C normalized RPPA signal", "setting": "[1]", "value": "0.797 and 0.718 and 1.114 and 0.876"}, {"measurement": "RSK1.R.V normalized RPPA signal", "setting": "[1]", "value": "1.025 and 1.192 and 1.102"}, {"measurement": "RSK.R.C normalized RPPA signal", "setting": "[1]", "value": "0.897 and 1.161"}, {"measurement": "Rab11.R.C normalized RPPA signal", "setting": "[1]", "value": "0.945 and 1.018"}, {"measurement": "Rab25.R.V normalized RPPA signal", "setting": "[1]", "value": "1.022 and 0.964 and 0.955 and 0.980"}, {"measurement": "Rad17_pS645.R.V normalized RPPA signal", "setting": "[1]", "value": "0.978 and 0.844 and 0.971"}, {"measurement": "Rad23A.R.C normalized RPPA signal", "setting": "[1]", "value": "0.902 and 0.794 and 1.765 and 1.154"}, {"measurement": "Rad50.R.V normalized RPPA signal", "setting": "[1]", "value": "1.096 and 1.085 and 1.310 and 1.164"}, {"measurement": "Rad51.R.C normalized RPPA signal", "setting": "[1]", "value": "0.693 and 0.792 and 0.842 and 0.776"}, {"measurement": "Raptor.R.V normalized RPPA signal", "setting": "[1]", "value": "0.796 and 0.917 and 1.035 and 0.916"}, {"measurement": "Rb.M.Q normalized RPPA signal", "setting": "[1]", "value": "0.868 and 1.016 and 1.009 and 0.964"}, {"measurement": "Rb_pS807_S811.R.V normalized RPPA signal", "setting": "[1]", "value": "0.751 and 0.680 and 0.842"}, {"measurement": "Rheb.M.C normalized RPPA signal", "setting": "[1]", "value": "1.435 and 1.017 and 1.212"}, {"measurement": "Rictor.R.C normalized RPPA signal", "setting": "[1]", "value": "0.973 and 1.010 and 1.009"}, {"measurement": "Rictor_pT1135.R.V normalized RPPA signal", "setting": "[1]", "value": "0.917 and 1.033 and 0.998"}, {"measurement": "S6.M.V normalized RPPA signal", "setting": "[1]", "value": "1.331 and 0.833"}, {"measurement": "S6_pS235_S236.R.V normalized RPPA signal", "setting": "[1]", "value": "0.159 and 0.167 and 0.469 and 0.265"}, {"measurement": "S6_pS240_S244.R.V normalized RPPA signal", "setting": "[1]", "value": "0.113 and 0.501 and 0.240"}, {"measurement": "SCD.M.V normalized RPPA signal", "setting": "[1]", "value": "0.924 and 0.950 and 0.971"}, {"measurement": "SDHA.R.V normalized RPPA signal", "setting": "[1]", "value": "1.123 and 1.101 and 1.057"}, {"measurement": "SF2.R.V normalized RPPA signal", "setting": "[1]", "value": "1.010 and 0.957"}, {"measurement": "SFRP1.R.V normalized RPPA signal", "setting": "[1]", "value": "0.979 and 1.009 and 0.863 and 0.950"}, {"measurement": "SGK1.R.V normalized RPPA signal", "setting": "[1]", "value": "0.759 and 0.622 and 1.145 and 0.842"}, {"measurement": "SGK3.R.V normalized RPPA signal", "setting": "[1]", "value": "0.855 and 0.956 and 0.913 and 0.908"}, {"measurement": "SHP2.R.V normalized RPPA signal", "setting": "[1]", "value": "0.966 and 1.028 and 0.923 and 0.972"}, {"measurement": "SHP.2_pY542.R.C normalized RPPA signal", "setting": "[1]", "value": "1.218 and 1.287 and 1.191"}, {"measurement": "SIRPαR.V normalized RPPA signal", "setting": "[1]", "value": "1.172 and 0.832 and 0.694 and 0.900"}, {"measurement": "SLC1A5.R.C normalized RPPA signal", "setting": "[1]", "value": "1.248 and 1.028 and 1.189 and 1.155"}, {"measurement": "SOD1.M.V normalized RPPA signal", "setting": "[1]", "value": 0.834}, {"measurement": "SOD2.R.V normalized RPPA signal", "setting": "[1]", "value": "1.108 and 1.226 and 0.894 and 1.076"}, {"measurement": "SOX7.R.V normalized RPPA signal", "setting": "[1]", "value": "1.078 and 1.212 and 1.083 and 1.124"}, {"measurement": "STING.R.V normalized RPPA signal", "setting": "[1]", "value": "0.848 and 1.021"}]}
